Test results taken from publication PMC8776995 (Frontiers in Chemistry, 2022).
Values joined by “and” are separate entries in the source; they are usually repeats but may differ in a detail not shown here. Equal values may be shown once.

Assays:
[1] = biological target: wild-type EGFR (Homo sapiens, UniProt P00533); assay: EGFR kinase assay (ELISA); conditions: for A450: raw ELISA absorbance
[2] = tested on: PC-9 cells; assay: CCK-8 antiproliferation assay, PC-9; conditions: for Inhibitory efficacy: single repeats (Repeat 1-3), given as fraction
Procedure: (§1) The compounds were dissolved in DMSO to make a 20 μM stock solution and diluted to the concentration of working solutions with complete growth medium before administration.
(§2) Cells were seeded in 96-well plates: 3,000–5,000 cells/well in 100 ul. One day after seeding, the test compounds at concentration between 1.0 and 16.0 μ M or 0.1% DMSO (as control) were added to cells in triplicate. 48 h later, CCK-8 was added and incubated the plate for 1–4 h in the incubator. The absorbance at 450 nm were measured using a microplate reader (Bio-Tek).

[3] = tested on: H460 cells; assay: CCK-8 antiproliferation assay, H460; conditions: for Inhibitory efficacy: H460 cells
Procedure: as §1, §2

[4] = tested on: H1975 cells; assay: CCK-8 antiproliferation assay, H1975; conditions: for Inhibitory efficacy: H1975 cells
[5] = tested on: A549 cells; assay: CCK-8 antiproliferation assay, A549; conditions: for Inhibitory efficacy: A549 cells
[6] = 4uM, given as fraction, Repeat 1-3
[7] = 8uM, given as fraction, Repeat 1-3
[8] = 16uM, given as fraction, Repeat 1-3
[9] = 1uM, given as fraction, Repeat 1-3
[10] = 2uM, given as fraction, Repeat 1-3

Chain of wild-type EGFR (P00533 25-1210): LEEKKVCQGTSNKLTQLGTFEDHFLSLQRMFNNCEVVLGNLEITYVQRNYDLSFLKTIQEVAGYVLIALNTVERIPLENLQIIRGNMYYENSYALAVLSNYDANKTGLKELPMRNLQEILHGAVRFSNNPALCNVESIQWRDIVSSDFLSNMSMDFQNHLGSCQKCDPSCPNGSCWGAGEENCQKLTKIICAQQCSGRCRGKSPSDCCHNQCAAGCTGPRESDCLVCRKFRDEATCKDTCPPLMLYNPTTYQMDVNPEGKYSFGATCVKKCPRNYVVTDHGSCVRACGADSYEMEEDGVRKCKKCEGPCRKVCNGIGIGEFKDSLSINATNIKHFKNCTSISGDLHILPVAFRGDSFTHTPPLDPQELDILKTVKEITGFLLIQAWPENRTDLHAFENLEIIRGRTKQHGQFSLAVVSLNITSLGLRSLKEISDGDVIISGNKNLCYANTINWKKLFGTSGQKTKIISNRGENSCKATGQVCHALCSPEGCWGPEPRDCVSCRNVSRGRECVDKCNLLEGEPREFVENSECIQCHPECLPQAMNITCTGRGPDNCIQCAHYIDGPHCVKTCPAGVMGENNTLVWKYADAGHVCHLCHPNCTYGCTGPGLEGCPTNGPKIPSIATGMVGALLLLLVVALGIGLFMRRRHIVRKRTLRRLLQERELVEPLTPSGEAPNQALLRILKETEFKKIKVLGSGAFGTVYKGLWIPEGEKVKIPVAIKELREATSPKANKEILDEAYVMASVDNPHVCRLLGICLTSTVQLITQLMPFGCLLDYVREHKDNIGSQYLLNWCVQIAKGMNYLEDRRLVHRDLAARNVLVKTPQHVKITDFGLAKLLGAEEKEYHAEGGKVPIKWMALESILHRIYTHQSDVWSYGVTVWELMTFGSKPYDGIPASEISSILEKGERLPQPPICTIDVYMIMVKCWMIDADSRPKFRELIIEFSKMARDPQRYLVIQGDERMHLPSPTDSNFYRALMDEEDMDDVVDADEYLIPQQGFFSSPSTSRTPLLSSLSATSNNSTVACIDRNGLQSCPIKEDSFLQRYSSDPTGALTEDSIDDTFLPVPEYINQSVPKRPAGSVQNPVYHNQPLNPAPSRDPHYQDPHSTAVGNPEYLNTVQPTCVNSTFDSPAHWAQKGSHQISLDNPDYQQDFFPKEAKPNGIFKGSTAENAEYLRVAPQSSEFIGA

Structure (SMILES): COCCOc1cc2ncnc(Nc3cccc(-c4cn(-c5cccc([N+](=O)[O-])c5)nn4)c3)c2cc1OCCOC [e13, [6,7-Bis-(2-methoxy-ethoxy)-quinazolin-4-yl]-{3-[1-(3-nitro-phenyl)-1H-[1,2,3]triazol-4-yl]-phenyl}-amine]
- IC50 ([1]; IC50 (μM) EGFR, ELISA, 3 μmol/L ATP): 4.74 µM
- inhibition at 100 fM ([1]; concentration 0.0001 nM (reference for normalisation), one value per replicate column): 0%
- Inhibition ([1]; concentration 0.03 nM, one value per replicate column, 3e-05 µM): 3.252
- Inhibition ([1]; concentration 0.3 nM, one value per replicate column, 0.0003 µM): 1.084 and 9.485
- Inhibition ([1]; concentration 3 nM, one value per replicate column, 0.003 µM): 4.065 and 14.0921
- Inhibition ([1]; concentration 30 nM, one value per replicate column, 0.03 µM): 5.691 and 21.1382
- Inhibition ([1]; concentration 300 nM, one value per replicate column, 0.3 µM): 10.0271 and 28.9973
- inhibition at 3 µM ([1]; concentration 3000 nM, one value per replicate column): 30.9%
- Inhibition ([1]; concentration 3000 nM, one value per replicate column, 3 µM): 29.5393
- A450 ([1]; concentration 0.0001 nM): 0.702 and 0.668
- A450 ([1]; concentration 0.03 nM): 0.702 and 0.656
- A450 ([1]; concentration 0.3 nM): 0.698 and 0.633
- A450 ([1]; concentration 3 nM): 0.687 and 0.616
- A450 ([1]; concentration 30 nM): 0.681 and 0.59
- A450 ([1]; concentration 300 nM): 0.665 and 0.561
- A450 ([1]; concentration 3000 nM): 0.588 and 0.559
- A450 ([1]; concentration 30000 nM): 0.333 and 0.299
- IC50 ([2]; Homo sapiens, PC-9, 48 h, read-out: IC50 (μM) PC-9): 22.6 ± 1.16 µM
- inhibition at 8 µM ([2]; Homo sapiens, PC-9, read-out: Inhibitory efficacy, PC-9, 8uM, single repeats (Repeat 1-3), given as fraction): 12.1%
- inhibition at 16 µM ([2]; Homo sapiens, PC-9, read-out: Inhibitory efficacy, PC-9, 16uM, single repeats (Repeat 1-3), given as fraction): 28.6%
- Inhibitory efficacy ([2]; PC-9, 8uM, 8 µM): 0.1077 and 0.1459
- Inhibitory efficacy ([2]; PC-9, 16uM, 16 µM): 0.2884 and 0.3336
- melting point: 98 to 101 °C
- Inhibitory efficacy [3, 6]: 0.3261 and 0.3299
- Inhibitory efficacy [3, 7]: 0.4209 and 0.401
- Inhibitory efficacy [3, 8]: 0.4769 and 0.494
- IC50 ([3]; Homo sapiens, NCI-H460, 48 h, read-out: IC50 (μM) H460, CCK-8, 48 h, average ± SD of three independent experiments): 11.9 ± 3.63 µM
- inhibition at 4 µM ([3]; Homo sapiens, NCI-H460, read-out: Inhibitory efficacy, H460 cells, 4uM, given as fraction, Repeat 1-3): 42.4%
- inhibition at 8 µM ([3]; Homo sapiens, NCI-H460, read-out: Inhibitory efficacy, H460 cells, 8uM, given as fraction, Repeat 1-3): 54.8%
- inhibition at 16 µM ([3]; Homo sapiens, NCI-H460, read-out: Inhibitory efficacy, H460 cells, 16uM, given as fraction, Repeat 1-3): 56.2%
- Inhibitory efficacy [4, 9]: 0.09975 and 0.197
- Inhibitory efficacy [4, 10]: 0.1652 and 0.1521
- Inhibitory efficacy [4, 6]: 0.1521 and 0.1128
- Inhibitory efficacy [4, 7]: 0.1633 and 0.2344
- Inhibitory efficacy [4, 8]: 0.1933 and 0.2774
- IC50 ([4]; Homo sapiens, NCI-H1975, 48 h, read-out: IC50 (μM) H1975, CCK-8, 48 h, average ± SD of three independent experiments): > 100 µM
- inhibition at 1 µM ([4]; Homo sapiens, NCI-H1975, read-out: Inhibitory efficacy, H1975 cells, 1uM, given as fraction, Repeat 1-3): 14.3%
- inhibition at 2 µM ([4]; Homo sapiens, NCI-H1975, read-out: Inhibitory efficacy, H1975 cells, 2uM, given as fraction, Repeat 1-3): 25.5%
- inhibition at 4 µM ([4]; Homo sapiens, NCI-H1975, read-out: Inhibitory efficacy, H1975 cells, 4uM, given as fraction, Repeat 1-3): 15%
- inhibition at 8 µM ([4]; Homo sapiens, NCI-H1975, read-out: Inhibitory efficacy, H1975 cells, 8uM, given as fraction, Repeat 1-3): 24.2%
- inhibition at 16 µM ([4]; Homo sapiens, NCI-H1975, read-out: Inhibitory efficacy, H1975 cells, 16uM, given as fraction, Repeat 1-3): 21%
- Inhibitory efficacy [5, 9]: 0.1588 and 0.1553
- Inhibitory efficacy [5, 10]: 0.352 and 0.366
- Inhibitory efficacy [5, 6]: 0.5268 and 0.5198
- Inhibitory efficacy [5, 7]: 0.5749 and 0.6133
- Inhibitory efficacy [5, 8]: 0.6238 and 0.6256
- IC50 ([5]; Homo sapiens, A549, 48 h, read-out: IC50 (μM) A549, CCK-8, 48 h, average ± SD of three independent experiments): 5.95 ± 1.47 µM
- inhibition at 1 µM ([5]; Homo sapiens, A549, read-out: Inhibitory efficacy, A549 cells, 1uM, given as fraction, Repeat 1-3): 8.71%
- inhibition at 2 µM ([5]; Homo sapiens, A549, read-out: Inhibitory efficacy, A549 cells, 2uM, given as fraction, Repeat 1-3): 36.9%
- inhibition at 4 µM ([5]; Homo sapiens, A549, read-out: Inhibitory efficacy, A549 cells, 4uM, given as fraction, Repeat 1-3): 44.6%
- inhibition at 8 µM ([5]; Homo sapiens, A549, read-out: Inhibitory efficacy, A549 cells, 8uM, given as fraction, Repeat 1-3): 51.1%
- inhibition at 16 µM ([5]; Homo sapiens, A549, read-out: Inhibitory efficacy, A549 cells, 16uM, given as fraction, Repeat 1-3): 56.8%
